In patent US20050209104A1, “Dinoflagellate karlotoxins, methods of isolation and uses thereof” (priority 2002, published 2005):
Entries after “also recorded” stand apart in the source; their conditions may differ.

What was measured:
[1] = tested on: rainbow trout erythrocytes
Experimental: The filtrate from water samples collected on Feb. […] Environmental water samples were allowed to thaw to room temperature and passed through a Sep-Pak Plus tC18 disposable cartridge (Waters Corp., Milford Mass.), attached to a vacuum manifold. The column was pre-equilibrated with methanol (20 ml) followed by H2O (20 ml). The cartridges were eluted with the following concentrations of MeOH/H2O: 100% H2O, 40%, 60%, 80%, and 100% MeOH (12 ml ea^−1). An aliquot of each elution was diluted, using Tris buffer +CaCl2, to give final dilutions ranging from 6 to 60% of original concentrations. […] The occurrence of hemolytic activity was determined by the absorbance of released hemoglobin, measured at 540 nm. Saponin (10 μg) served as a positive hemolysin control. Treatments were run in quadruplicate.
A hemolytic assay based on the lysis of fish erythrocytes was utilized to screen for bioactive materials. Cultures and culture fractions that were positive in the hemolytic assay were tested further using assays for ichthyotoxicity and cytotoxicity.
Blood was extracted from the caudal vein of rainbow trout (Oncorhynchus mykis) provided by the Center of Marine Biotechnology's Aquaculture Research Center. Needles were heparin (Sigma Chemical Co., St. Louis Mo.) treated and 10 units ml^−1 of additional heparin was added to whole blood samples to prevent clotting. […] Buffer pH was adjusted to 7.4 at 10° C. with 1N HCl, then filter sterilized (0.22 μm). […] Suspensions were stored at 4° C. for no longer than 10 days.
Hemolytic assays were performed by diluting test material in Tris buffer +CaCl2 (100 μl total) and adding this to a 5% erythrocyte suspension (100 μl). […] Assays were incubated on an orbital shaker (80-100 rpm) at 20° C. for 1 hour. Plates were then centrifuged at 2500 g for 5 min. and the supernatant (100 μl) was transferred to another flat bottom 96 well polystyrene plate, where the absorbance of released hemoglobin was read at 540 nm. Saponin (10 μg) (from Quillaja bark; Sigma Chemical Co., St. Louis Mo.) was used as a positive hemolysin control All treatments were run in quadruplicate.
LC50values and ranges were determined by Probit analysis (SPSS Base 10.0, SPSS Inc., Chicago Ill.).
Blood was extracted from the caudal vein of rainbow trout (Oncorhynchus mykis). […] Buffer pH was adjusted to 7.4 at 10° C. with 1N HCl, then filter sterilized (0.22 um). […] Blood suspensions were stored at 4° C. for no longer than 10 days.
Hemolysis assays were performed by diluting test material in Tris buFFer +CaCl2 (100 ul) and adding this to 100 ul of a 5% erythrocyte suspension for a total assay volume of 200 ul. […] Plates were incubated on an orbital shaker (80-100 rpm) at 20° C. for 1 hour. Plates were then centrifuged at 2000 g for 5 min. and the supernatant (100 ul) was transferred to a new flat bottom 96 well polystyrene plate, where the absorbance of released hemoglobin was read at 540 nm. Saponin (from Quillaja bark; Sigma Chemical Co., St. Louis Mo.) was used as a positive hemolysin control. Percent hemolysis (0-100%) was calculated from comparison to un-treated controls and samples treated with 10 ug saponin. All treatments were run in quadruplicate.
Hemolytic LC50 values were calculated from a dilution series of KmTx 2 and amphotericin B. LC50 values and ranges were determined by Probit analysis using a SPSS Base 10.0 statistical software package (SPSS Inc., Chicago, Ill.).

Oxyrrhis marina = assay: Effect of KmTx 2 on a potential grazer; assay type: cell-based
Experimental: Oxyrrhis marina (1.7×10^4 cells/mil) and K. micrum (CCMP 2282) (3.5×10^4 cells/ml) were exposed, in triplicate, to 0, 0.1, 0.5, and 1 μg/ml KmTx 2 in six well non-tissue culture treated polystyrene plates (Becton Dickinson Labware, Lincoln Park N.J.). The O. marina culture was obtained through single cell isolation from a Chesapeake Bay water sample and was maintained in 15 psu artificial sea water (Instant Ocean Brand) using Rhodomonas sp. (CCMP 767) as a food source. O. marina was starved for 24 hours prior to exposures to reduce the number of food organisms. K. micrum (CCMP 2282) was maintained in 12 psu artificial sea water (Instant Ocean Brand) with f/2 nutrient mixture plus 1% soil extract as described in Deeds et al. (2002). Cell densities were measured at 1 and 24 hours using a Coulter Multisizer II particle counter by enumerating the 7-20 μm and the […] size fractions, respectively, for K. micrum and O. marina using a Coulter Accucomp software package (Coulter Electronics Limited, Miami Fla.). Significant differences (p<0.05) among mean cell numbers for different treatments were tested for using one-way analysis of variance with Scheffe's post hoc test using SPSS Base 10.0 statistical software (SPSS Inc., Chicago, Ill.).
Hemolytic activity remaining in solution was measured at 1 hour by mixing 100 μl of each treatment with an equal volume of diluted rainbow trout RBC suspension as described above in Example 3.

[2] = tested on: rat embryonic fibroblast (REF 52) cells; assay: Ion permeation measurement, Ca^2+ flux with fura-2 (fibroblasts); assay type: cell-based
Experimental: The following cell types were tested for toxicity due to KmTx 2; rat embryonic fibroblast, rat intestional epithelial, and isolated rabbit primary sensory neurons. Cells were cultured on No. 1 glass coverslips and loaded with fluorescent indicator (fura-2) and were examined on an inverted epifluorescence microscope (model Diaphot; 40×CF Fluor objective, N.A. 1.30; Nikon Corp.) coupled to a spectrofluorometer (model CM1T10I, SPEX Industries) operating in the microfluorometry mode. Cells were bathed in 4 ml of Dulbecco's modified Eagle's medium (DMEM) buffered with HEPES (pH 7.4). KmTx 2 (stock solution in DMSO) was directly bath-applied with gentle convective mixing. Fura-2 was alternately excited at 340 and 380 nm. Fluorescence emission was passed through a 510-nm bandpass filter before photometric quantitation. DATAMAX software (SPEX Industries) was used for data acquisition and instrument control. Origin software (OriginLab Corp.) was used for data reduction and analysis

Structure (SMILES): C=C(CC[C@H](O)[C@H]1O[C@H](C[C@@H](O)[C@H](O)[C@H](C)CCC[C@@H](O)[C@H](O)[C@H](O)[C@@H](C)CC[C@@H](O)[C@H](O)[C@H](C)C[C@@H](O)CCC[C@@H](O)CCC[C@@H](O)/C=C/C[C@@H](O)CO)[C@@H](O)[C@@H](O)[C@@H]1O)[C@H](O)[C@H](O)[C@@H]1C[C@H](O)[C@H](O)[C@@H]([C@H](O)[C@@H](O)/C=C/CCCCCCCC/C=C/C=C/Cl)O1 [KmTx 2]
- hemolytic LC50 ([1]; probit analysis of dilution series): 0.368 µg/mL
- hemolytic activity compared to amphotericin B ([1]; rainbow trout erythrocytes): ten fold higher
- reduction of O. marina cell densities (Oxyrrhis marina; 1 μg/ml, after 24 hours): > 90%
- cell lysis of O. marina (Oxyrrhis marina; 0.5 and 1 μg/ml treatments at 1 hour): significant (P<0.05) cell lysis
- hemolytic activity remaining in solution (Oxyrrhis marina; after 1 hour, all KmTx 2 concentrations, O. marina compared to K. micrum exposed cultures): reduced
- intracellular free Ca^2+ concentration ([Ca^2+]i) ([2]; 0.25 μg/ml): marked increase in intracellular free Ca^2+ concentration; also recorded: rapid increase in cytosolic Ca^2+ levels followed by slight recovery
- intracellular free Ca^2+ concentration ([Ca^2+]i) ([2]; 1 μg/ml): sharp and irreversible rise in [Ca^2+]i; also recorded: rapid rise in cytosoloc Ca^2+ levels with no recovery
